Experimental data: article PMC5618341, “Controlled inhibition of methyltransferases using photoswitchable peptidomimetics: towards an epigenetic regulation of leukemia” (Chemical Science, 2017)
Like-named read-outs stand apart in the source and are kept apart here. Starred links: 1 amine or outer side, 2 acyl side, 3 side chain; linkers in the order of their positions; H or OH if unused. Positions of bridges follow the written chain, without caps; N, C: chain ends. Non-standard residues stand in square brackets, D forms with d. Residues, ends and D or L forms follow the SMILES beside them. *: point of attachment. AMPB(E) = O=C(c1ccc(/N=N/c2ccc(CN[*:1])cc2)cc1)[*:2]; AMPB = O=C(c1ccc(N=Nc2ccc(CN[*:1])cc2)cc1)[*:2]; X1 = O=C(c1ccc(/N=N\c2ccc(CN[*:1])cc2)cc1)[*:2]; d(αMeK) = C[C@@](N)(CCCCN)C(=O)O; dPhg = N[C@@H](C(=O)O)c1ccccc1; Isobutyryl = CC(C)C(=O)*; Abu = CC[C@H](N)C(=O)O; Ahx = NCCCCCC(=O)O; βAla = NCCC(=O)O

Experiments:
[1] = biological target: T1, WDR5Δ23 (Homo sapiens, UniProt P61964); test: Fluorescence polarization (FP)-based competitive binding assay
T1 construct: His6-SUMO (N, cleaved yes); made in house; host or cells: E. coli DH5α (so in the source)

[2] = system: MLL-AF9-transduced mouse bone marrow cells; test: Proliferation / cell viability assay (CellTiter-Glo); assay type: cell-based; settings: for Inhibition (%) of growth: 5 μM
Method: (§1) We initially studied the cellular uptake and cell viability of our compounds in murine MLL-AF9-transduced mouse bone marrow cells (Fig. 5). In line with our expectations, peptidomimetics 16 and 17 that contained peptide 7 within their sequence are the ones that inhibited the cell proliferation of leukemia. […] Thus, while in the case of the trans isomer of peptidomimetic 16 we already determined less than 50% of viable cells at 2.5 μM concentration, with the WIN-containing conjugates 20 and 21 we measured 87% and 96% of viable cells at 50 μM concentration, respectively.
(§2) We then examined the potential of 16 and 17 to control externally the cellular response in proliferation assays. Thus, both isomers of both peptidomimetics were incubated at different concentrations for four days. After two days of incubation, the cells containing the cis isomers were irradiated at 430 nm for 90 seconds in a single isomerization cycle with a custom-made 6-well plate LED array.
(§3) MLL-AF9-transduced mouse bone marrow was cultured in IMDM medium + 15% FBS and supplemented with 10 ng/mL interleukin-3 (IL-3) at each passage, every other day.
(§4) DMSO) isomers, of peptides 7, 16, 17, as well as the peptides 18 and 19 were diluted from stock to culture media containing a 0.1% DMSO final concentration. For viability assays, […]
(§5) 72 h and DMSO as control . For the cis-trans group, after 48 h treatment with cis peptides, the plate was irradiated at […] for 90 sec and continued to culture for 2 days in the dark.
(§6) Viability was determined using the CellTiter-Glo Kit (Promega) according to the a a ’ d . was monitored on a Molecular Devices plate reader.

[3] = biological target: MLL1 core complex (MLL1, WDR5, RbBP5, and ASH2L) (Homo sapiens, UniProt P61964); test: biochemical
Method: To test this, we studied the inhibition of MLL1 H3K4 methyltransferase activity through the previously reported in vitro HMT assay using the MLL1 core complex (i.e. MLL1, WDR5, RbBP5, and ASH2L) and the H3 20mer peptide as substrate.[17]
In Vitro Methyl Transferase Assay with MLL1 Core Complex
In Vitro Histone Methyltransferase (HMT) Assay
The HMT assay was performed, as previously described[25] with slight modifications, in 50 mM Tris pH 8.0, 50 mM NaCl, 1.0 mM DTT, 5 mM MgCl2 at room temperature. Each reaction contained 1.5 μM of the cofactor 3H-S-adenosylmethionine (Perkin-Elmer). H31-21 peptide was used as the substrate at 250 μM. […] Reactions were initiated by addition of the H3/SAM and allowed to proceed for 60 min before preparing scintillation counting. To count samples, reactions were spotted on separate squares of P81 filter paper (Millipore) and precipitated by submerging in freshly prepared 50 mM sodium bicarbonate buffer pH = 9.0. After washing and drying, the samples were vortexed in Ultima Gold scintillation fluid and counted.

[4] = Proliferation / cell viability assay (CellTiter-Glo); assay type: cell-based, mouse
Method: as §1, §2, §3, §4, §5, §6

[5] = IC50 trans (with 5 nM tracer), trans isomer, 20 nM WDR5Δ23, 5 nM tracer 22
[6] = non-irradiated peptide (trans isomer), 72 nM WDR5Δ23, 20 nM tracer 22, read-out: IC50, non-irradiated (trans)
[7] = non-irradiated peptide (trans isomer), 72 nM WDR5Δ23, 20 nM tracer 22, read-out: Ki, non-irradiation (trans)
[8] = IC50 cis (with 5 nM tracer), cis isomer (366 nm), 20 nM WDR5Δ23, 5 nM tracer 22

## CC(C)C[C@H](NC(=O)[C@H](Cc1c[nH]cn1)NC(=O)[C@@H](NC(=O)c1ccc(/N=N/c2ccc(CNC(=O)[C@H](C)NC(=O)[C@H](CCCNC(=N)N)NC(=O)[C@H](C)NC(=O)[C@@H](N)CO)cc2)cc1)C(C)C)C(=O)N[C@@H](CCCNC(=N)N)C(=O)N[C@@H](CCCCN)C(=O)N[C@@H](CO)C(N)=O [7trans, H2N-SARAXVHLRKS-CONH2] (H-SARA[AMPB(E)]VHLRKS-NH2)
[1]; [5]
  IC50: 57 ± 11 nM
[2]; 96 h incubation
  Inhibition (%) of growth: 0%
[3]
  IC50: 531 ± 23 nM

## CC(C)C[C@H](NC(=O)[C@H](Cc1c[nH]cn1)NC(=O)[C@@H](NC(=O)c1ccc(/N=N\c2ccc(CNC(=O)[C@H](C)NC(=O)[C@H](CCCNC(=N)N)NC(=O)[C@H](C)NC(=O)[C@@H](N)CO)cc2)cc1)C(C)C)C(=O)N[C@@H](CCCNC(=N)N)C(=O)N[C@@H](CCCCN)C(=O)N[C@@H](CO)C(=O)N[C@@H](CCCNC(=N)N)C(=O)N[C@@H](CCCNC(=N)N)C(=O)N[C@@H](CCCNC(=N)N)C(=O)N[C@@H](CCCNC(=N)N)C(=O)N[C@@H](CCCNC(=N)N)C(=O)N[C@@H](CCCNC(=N)N)C(=O)N[C@@H](CCCNC(=N)N)C(=O)N[C@@H](CCCNC(=N)N)C(N)=O [16cis, H2N-SARA-AMPB-VHLRKS-R8-NH2] (H-SARA[X1]VHLRKSRRRRRRRR-NH2)
[2]; 96 h
  GI50: 2880 ± 240 nM

## CC[C@@H]1NC(=O)[C@H](CCCN=C(N)N)NC(=O)[C@](C)(NC(=O)C(C)C)CCCCNC(=O)[C@@H](c2ccccc2)NC1=O [MM401, reference compound] (Isobutyryl-[d(αMeK)]R[Abu][dPhg]; lactam 1-C)
[2]; 96 h incubation, cis isomers kept in the dark, read-out: GI50
  GI50: 9760 nM

## CC(C)C[C@H](NC(=O)[C@H](Cc1c[nH]cn1)NC(=O)c1ccc(N=Nc2ccc(CNC(=O)[C@H](CCC(=O)O)NC(=O)[C@H](C)NC(=O)[C@H](CCCNC(=N)N)NC(=O)[C@H](C)NC(=O)[C@@H](N)CO)cc2)cc1)C(=O)N[C@@H](CCCNC(=N)N)C(=O)N[C@@H](CCCCN)C(=O)N[C@@H](CO)C(N)=O [peptide 8, H2N-SARAEXHLRKS-CONH2] (H-SARAE[AMPB]HLRKS-NH2)
[1]; [6]
  IC50: 210 ± 35 nM
[1]; [7]
  Ki: 2.4 ± 0.6 nM

## CC(=O)N[C@@H](C)C(=O)N[C@@H](CCCNC(=N)N)C(=O)N[C@@H](C)C(=O)NCc1ccc(N=Nc2ccc(C(=O)N[C@H](C(=O)N[C@@H](Cc3c[nH]cn3)C(=O)N[C@@H](CC(C)C)C(=O)N[C@@H](CCCNC(=N)N)C(=O)N[C@@H](CCCCN)C(=O)N[C@@H](CO)C(N)=O)C(C)C)cc2)cc1 [peptide 14, Ac-ARAXVHLRKS-CONH2] (Ac-ARA[AMPB]VHLRKS-NH2)
[1]; [8]
  IC50: 102 ± 15 nM
[1]; [5]
  IC50: 45 ± 11 nM
[1]; Ki cis (with 5 nM tracer), cis isomer (366 nm), 20 nM WDR5Δ23, 5 nM tracer 22
  Ki: 4.5 ± 0.82 nM
[1]; Ki trans (with 5 nM tracer), trans isomer, 20 nM WDR5Δ23, 5 nM tracer 22
  Ki: 1.5 ± 0.63 nM
[1]; [7]
  Ki: 1.45 ± 0.52 nM

## CC(C)C[C@H](NC(=O)[C@H](Cc1c[nH]cn1)NC(=O)[C@@H](NC(=O)[C@H](CCC(=O)O)NC(=O)[C@H](C)NC(=O)[C@H](CCCNC(=N)N)NC(=O)[C@H](C)NC(=O)[C@@H](N)CO)C(C)C)C(=O)N[C@@H](CCCNC(=N)N)C(=O)N[C@@H](CCCCN)C(=O)N[C@@H](CO)C(=O)N[C@@H](CCCNC(=N)N)C(=O)N[C@@H](CCCNC(=N)N)C(=O)N[C@@H](CCCNC(=N)N)C(=O)N[C@@H](CCCNC(=N)N)C(=O)N[C@@H](CCCNC(=N)N)C(=O)N[C@@H](CCCNC(=N)N)C(=O)N[C@@H](CCCNC(=N)N)C(=O)N[C@@H](CCCNC(=N)N)C(N)=O [peptide 20] (H-SARAEVHLRKSRRRRRRRR-NH2)
[1]; [6]
  IC50: 368 ± 20 nM
[1]; [7]
  Ki: 4.83 ± 0.31 nM
[4]
  viability at 50 µM: 87%

## CC(C)C[C@H](NC(=O)[C@H](Cc1c[nH]cn1)NC(=O)[C@@H](NC(=O)c1ccc(/N=N\c2ccc(CNC(=O)[C@H](C)NC(=O)[C@H](CCCNC(=N)N)NC(=O)[C@H](C)NC(=O)[C@@H](N)CO)cc2)cc1)C(C)C)C(=O)N[C@@H](CCCNC(=N)N)C(=O)N[C@@H](CCCCN)C(=O)N[C@@H](CO)C(N)=O [7cis, H2N-SARAXVHLRKS-CONH2] (H-SARA[X1]VHLRKS-NH2)
[1]; [8]
  IC50: 147 ± 14 nM
[2]; 96 h incubation
  Inhibition (%) of growth: ≈ 0%
[3]
  IC50: 8230 ± 380 nM

## CC(C)C[C@H](NC(=O)c1ccc(N=Nc2ccc(CNC(=O)[C@@H](NC(=O)[C@H](CCC(=O)O)NC(=O)[C@H](C)NC(=O)[C@H](CCCNC(=N)N)NC(=O)[C@H](C)NC(=O)[C@@H](N)CO)C(C)C)cc2)cc1)C(=O)N[C@@H](CCCNC(=N)N)C(=O)N[C@@H](CCCCN)C(=O)N[C@@H](CO)C(N)=O [peptide 9, H2N-SARAEVXLRKS-CONH2] (H-SARAEV[AMPB]LRKS-NH2)
[1]; [6]
  IC50: 2530 ± 390 nM
[1]; [7]
  Ki: 40.4 ± 3.9 nM

## CC(C)[C@H](NC(=O)[C@H](CCC(=O)O)NC(=O)[C@H](C)NC(=O)[C@H](CCCNC(=N)N)NC(=O)[C@H](C)NC(=O)[C@@H](N)CO)C(=O)N[C@@H](Cc1c[nH]cn1)C(=O)NCc1ccc(N=Nc2ccc(C(=O)N[C@@H](CCCNC(=N)N)C(=O)N[C@@H](CCCCN)C(=O)N[C@@H](CO)C(N)=O)cc2)cc1 [peptide 10, H2N-SARAEVHXRKS-CONH2] (H-SARAEVH[AMPB]RKS-NH2)
[1]; [6]
  IC50: 1150 ± 120 nM
[1]; [7]
  Ki: 17 ± 1.9 nM

## CC(=O)N[C@@H](C)C(=O)N[C@@H](CCCNC(=N)N)C(=O)N[C@H](C(=O)NCc1ccc(N=Nc2ccc(C(=O)N[C@H](C(=O)N[C@@H](Cc3ccc(O)cc3)C(N)=O)C(C)C)cc2)cc1)[C@@H](C)O [peptide 15, Ac-ARTXVY-CONH2] (Ac-ART[AMPB]VY-NH2)
[1]; [6]
  IC50: 109 ± 10 nM
[1]; [7]
  Ki: 0.767 ± 0.15 nM

## CC(C)C[C@H](NC(=O)[C@H](Cc1c[nH]cn1)NC(=O)[C@@H](NC(=O)[C@H](CCC(=O)O)NC(=O)[C@H](C)NC(=O)[C@H](CCCNC(=N)N)NC(=O)[C@H](C)NC(=O)[C@@H](N)CO)C(C)C)C(=O)N[C@@H](CCCNC(=N)N)C(=O)N[C@@H](CCCCN)C(=O)N[C@@H](CO)C(=O)N[C@@H](CCCNC(=N)N)C(=O)NCCCCCC(=O)N[C@@H](CCCNC(=N)N)C(=O)N[C@@H](CCCNC(=N)N)C(=O)NCCCCCC(=O)N[C@@H](CCCNC(=N)N)C(=O)N[C@@H](CCCNC(=N)N)C(=O)NCCCCCC(=O)N[C@@H](CCCNC(=N)N)C(=O)N[C@@H](CCCNC(=N)N)C(=O)NCCCCCC(=O)N[C@@H](CCCNC(=N)N)C(=O)NCCCCCC(=O)NCCC(N)=O [peptide 21] (H-SARAEVHLRKSR[Ahx]RR[Ahx]RR[Ahx]RR[Ahx]R[Ahx][βAla]-NH2)
[1]; [6]
  IC50: 612 ± 20 nM
[1]; [7]
  Ki: 8.67 ± 0.32 nM
[4]
  viability at 50 µM: 96%

## CC(C)C[C@H](NC(=O)[C@H](Cc1c[nH]cn1)NC(=O)[C@@H](NC(=O)[C@H](CCC(=O)O)NC(=O)[C@H](C)NC(=O)[C@H](CCCNC(=N)N)NC(=O)[C@H](C)NC(=O)[C@@H](N)CO)C(C)C)C(=O)N[C@@H](CCCNC(=N)N)C(=O)NCc1ccc(N=Nc2ccc(C(=O)N[C@@H](CO)C(N)=O)cc2)cc1 [peptide 12, H2N-SARAEVHLRXS-CONH2] (H-SARAEVHLR[AMPB]S-NH2)
[1]; [6]
  IC50: 1320 ± 110 nM
[1]; [7]
  Ki: 19.8 ± 1.7 nM

## CC(C)C[C@H](NC(=O)[C@H](Cc1c[nH]cn1)NC(=O)[C@@H](NC(=O)[C@H](CCC(=O)O)NC(=O)[C@H](C)NC(=O)[C@H](CCCNC(=N)N)NC(=O)c1ccc(N=Nc2ccc(CNC(=O)[C@@H](N)CO)cc2)cc1)C(C)C)C(=O)N[C@@H](CCCNC(=N)N)C(=O)N[C@@H](CCCCN)C(=O)N[C@@H](CO)C(N)=O [peptide 5, H2N-SXRAEVHLRKS-CONH2] (H-S[AMPB]RAEVHLRKS-NH2)
[1]; [6]
  IC50: 3910 ± 830 nM
[1]; [7]
  Ki: 66.8 ± 10 nM

## H2N-SXARAEVHLRKS-CONH2 [peptide 4, X = AMPB]
[1]; both isomers
  binding constant to WDR5 (in words): not possible to obtain measurable binding constants

## CC(C)C[C@H](NC(=O)[C@H](Cc1c[nH]cn1)NC(=O)c1ccc(N=Nc2ccc(CNC(=O)[C@H](C)NC(=O)[C@H](CCCNC(=N)N)NC(=O)[C@H](C)NC(=O)[C@@H](N)CO)cc2)cc1)C(=O)N[C@@H](CCCNC(=N)N)C(=O)N[C@@H](CCCCN)C(=O)N[C@@H](CO)C(N)=O [peptide 13, H2N-SARAXHLRKS-CONH2] (H-SARA[AMPB]HLRKS-NH2)
[1]; [6]
  IC50: 293 ± 50 nM
[1]; [7]
  Ki: 3.63 ± 0.8 nM

## CC(C)C[C@H](NC(=O)[C@H](Cc1c[nH]cn1)NC(=O)[C@@H](NC(=O)[C@H](CCC(=O)O)NC(=O)[C@H](C)NC(=O)[C@H](CCCNC(=N)N)NC(=O)[C@H](C)NC(=O)[C@@H](N)CO)C(C)C)C(=O)NCc1ccc(N=Nc2ccc(C(=O)N[C@@H](CCCCN)C(=O)N[C@@H](CO)C(N)=O)cc2)cc1 [peptide 11, H2N-SARAEVHLXKS-CONH2] (H-SARAEVHL[AMPB]KS-NH2)
[1]; [6]
  IC50: 2140 ± 280 nM
[1]; [7]
  Ki: 32.8 ± 4.5 nM
